Test results reported in patent publication US12545643B2, “3,5-diaminobenzoic acid compound, and Pin1 inhibitor and therapeutic agent for inflammatory diseases using same” (Amenis Bioscience, Inc., priority 2020, dated 2026).
Values belong to the compound of their own block, whether it stands above or below them.

Key:
SARS-CoV-2 = SARS-CoV-2 proliferation suppression study (nucleocapsid Western blot in VeroE6/TMPRSS2 cells); format: cell-based; conditions: for inhibition at 20 µM: Severe acute respiratory syndrome coronavirus 2, 20 μM, MOI 10, lysate 8 hours after infection, read-out: Inhibition rate (SARS-CoV-2 nucleocapsid band area)
Pin1 [1] = target: T1, Pin1 (Homo sapiens, UniProt Q13526); test: Cell-based assay of Pin1 inhibition (AMPK phosphorylation level as index, Western blot); parameters: endogenous in cells; host or cells: 293T cells; key: +++: a higher level of AMPK phosphorylation is promoted, as compared with C1; ++: a similar level of AMPK phosphorylation is promoted, as compared with C1; +: a lower level of AMPK phosphorylation is promoted, as compared with C1; −: no or almost no promotion is found in AMPK phosphorylation; conditions: 293T cells, compound at 50 μM, 10 mM 2-DG, pAMPK level compared with known Pin1 inhibitor C1
Experimental: To evaluate the inhibitory activity of each compound synthesized in Example 1 against the function of Pin1, a cell-based assay was performed according to the method previously developed by the inventors (Yusuke Nakatsu et al., Journal of Biological Chemistry, 2015, Vol. 290, No. 40, pp. 24255-24266), in which the phosphorylation level of AMPK (AMP-activated protein kinase), a protein whose phosphorylation is suppressed by Pin1, was examined as an index.
Briefly, 293T cells were plated on a collagen-coated 24-well plate. Forty-eight hours later, each compound synthesized in the preceding example (at 50 μM) was added to the plate, and the plate was left to stand in an incubator for 30 minutes. Subsequently, 10 mM 2-DG was added to the plate, and one hour later, each sample was collected with a buffer containing mercaptoethanol and SDS.
SDS-PAGE and blotting were performed, and blocking was then performed with 3% BSA for 1 hour, according to conventional protocols. Subsequently, a pAMPK antibody (Cell Signaling; diluted 1:2000 in Can Get Signal Solution 1, Toyobo) as a primary antibody, and an HRP-linked anti rabbit IgG (GE Healthcare; diluted 1:4000 in Can Get Signal Solution 2, Toyobo) as a secondary antibody were allowed to react at ambient temperature for 1 hour prior to detection.
The inhibitory activity against the function of Pin1 was evaluated as indicated below by comparing the inhibition levels between each compound and a known Pin1 inhibitor, C1 ((R)-2-(5-(4-methoxyphenyl)-2-methylfuran-3-carboxamido)-3-(naphthalene-6-yl) propanoic acid):
(+++): a higher level of AMPK phosphorylation is promoted, as compared with C1;
(++): a similar level of AMPK phosphorylation is promoted, as compared with C1;
(+): a lower level of AMPK phosphorylation is promoted, as compared with C1;
(−): no or almost no promotion is found in AMPK phosphorylation.

[2] = test system: non-alcoholic steatohepatitis (NASH) model mice; test: NASH treatment study in HFD-fed NASH model mice; format: in vivo; conditions: 5 mg/kg/day orally three times a week, 8 weeks
Experimental: Animal experiments were performed using non-alcoholic steatohepatitis (NASH) model mice to test the compounds according to the present invention for the therapeutic effect on NASH. NASH model mice (hereinafter referred to as “NASH mice”) were produced by feeding a high-fat and high-cholesterol diet containing palm oil (HFD) to individual 8-week-old male laboratory mice for 8 weeks. The mice were divided into groups during 8 weeks of the HFD-feeding period, and animal experiments were performed on a group of mice to which a compound according to the present invention (H-686) was administered orally at a dose of 5 mg/kg/day three times a week, and a group of mice to which nothing was administered. In addition, a normal diet was given to individual 8-week-old male laboratory mice for 8 weeks to prepare control mice. FIGS. 1 (A) and 1 (B) show the results of measurements of body weight and liver weight of these mice respectively. FIGS. 2 (A) and 2 (B) show the results of measurements of blood AST (GOT) concentration and blood ALT (GPT) concentration. respectively. Then FIGS. 3 (A) and 3 (B) show the results of measurements of mRNA expression levels of Colla1 (collagen, type I, alpha 1 chain) and Colla2 (collagen, type I, alpha 2 chain), respectively.

Pin1 [3] = target: T1, Pin1; test: Cell-free assay of peptidylprolyl isomerase activity (absorbance at 330 nm, substrate Suc-Ala-Glu-Pro-Phe-pNA); format: biochemical; conditions: compound 10 μM, Pin1 5 nM, substrate peptide 60 μM, 10° C.; read-out: Pin1 inhibition activity Cell-free assay (inhibition ratio)
Experimental: For some compounds synthesized in Example 1, the inhibitory activity against the function of Pin1 was measured by a cell-free assay based on the method by Janowski et al. (AnalyticalBiochemistry, 1997, Vol. 252, Issue 2, pp. 299-307) because there is an assay measuring peptidylprolylisomerase activity without cells (cell-free).
Briefly, an assay buffer (containing 35 mM HEPES, pH 7.8, 50 μM DTT and 0.0025% NP40) was equilibrated to 10° C. in a quartz cell with stirring function. To this solution was added the compound dissolved in DMSO (10 μM) and then UV spectrum of the resulting solution was immediately measured. Then Pin1 (final concentration of 5 nM) was added to the solution. The reaction was initiated by adding a substrate peptide (Suc-Ala-Glu-Pro-Phe-pNA) dissolved in 0.5 M LiCl solution in trifluoroethanol (final concentration of 60 μM). After reaction was initiated, the change of absorbance at 330 nm was measured for 5 minutes. The resultant reaction curve was fitted to a first order decay model to calculate the reaction rate. The catalytic reaction rate was calculated by subtracting the background rate from the reaction rate. The inhibition ratio (%) was calculated from the catalytic reaction rates in the presence and absence of the compound. The higher inhibition ratio means the higher inhibitory activity against Pin1 function.

NASH-induced mice = conditions: cited from earlier work

T1 sequence (Q13526 whole entry): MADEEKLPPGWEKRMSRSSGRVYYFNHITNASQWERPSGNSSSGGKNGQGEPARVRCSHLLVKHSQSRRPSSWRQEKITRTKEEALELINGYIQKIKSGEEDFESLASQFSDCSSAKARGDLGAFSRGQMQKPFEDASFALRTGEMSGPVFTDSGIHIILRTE

SMILES: COC(=O)c1cc(NC(=O)c2cccnc2)cc(NC(=O)n2c3ccccc3c3ccccc32)c1 [Compound H-680]
inhibition at 20 µM (SARS-CoV-2): 53%
Pin1 inhibition activity Cell-based assay (Pin1 [1]): − (Hydrolysis causes conversion to H-682)

SMILES: COC(=O)c1cc(NC(=O)c2ccc3ccccc3n2)cc(NC(=O)n2c3ccccc3c3ccccc32)c1 [Compound H-684]
inhibition at 20 µM (SARS-CoV-2): 66%
Pin1 inhibition activity Cell-based assay (Pin1 [1]): ++ (Hydrolysis causes conversion to H-688)

SMILES: COC(=O)c1cc(NC(=O)c2cnc3ccccc3n2)cc(NC(=O)n2c3ccccc3c3ccccc32)c1 [Compound H-685]
inhibition at 20 µM (SARS-CoV-2): 58%
Pin1 inhibition activity Cell-based assay (Pin1 [1]): +

SMILES: COC(=O)c1cc(NC(=O)c2ccc3c(c2)OCCO3)cc(NC(=O)n2c3ccccc3c3ccccc32)c1 [Compound H-686]
body weight (weight gain) ([2]; FIG. 1 (A)): weight gain in the mice given H-686 was suppressed
liver weight (increase) ([2]; FIG. 1 (B)): the increase in liver weight was significantly suppressed
blood AST (GOT) concentration ([2]; FIG. 2 (A)): the AST value was decreased
blood ALT (GPT) concentration ([2]; FIG. 2 (B)): the ALT value was decreased
mRNA expression level of Colla1 (collagen, type I, alpha 1 chain) ([2]; FIG. 3 (A)): the expression level of Colla1 was suppressed
mRNA expression level of Colla2 (collagen, type I, alpha 2 chain) ([2]; FIG. 3 (B)): the suppression of the expression level was observed
fat accumulation in liver tissue (microscopic observation) ([2]; FIG. 4): suppressed fat accumulation
Pin1 inhibition activity Cell-based assay (Pin1 [1]): ++ (Hydrolysis causes conversion to H-692)

SMILES: O=C(O)c1cc(NC(=O)c2ccc3ccccc3n2)cc(NC(=O)n2c3ccccc3c3ccccc32)c1 [Compound H-688]
suppressing effect against SARS-CoV-2 proliferation (SARS-CoV-2; 5 μM or 10 μM, MOI 10, 8 hours after infection, FIG. 5): observed to have a suppressing effect against SARS-CoV-2 proliferation
inhibition at 20 µM (SARS-CoV-2): 98%
Pin1 inhibition activity Cell-based assay (Pin1 [1]): ++

SMILES: COC(=O)c1cc(NC(=O)COc2ccccn2)cc(NC(=O)n2c3ccccc3c3ccccc32)c1 [Compound H-762]
inhibition at 20 µM (SARS-CoV-2): 83%
Pin1 inhibition activity Cell-based assay (Pin1 [1]): − (Hydrolysis causes conversion to H-763)

SMILES: O=C(COc1ccccn1)Nc1cc(NC(=O)n2c3ccccc3c3ccccc32)cc(C(=O)O)c1 [Compound H-763]
inhibition at 20 µM (SARS-CoV-2): 97%
Pin1 inhibition activity Cell-based assay (Pin1 [1]): −
inhibition at 10 µM (Pin1 [3]): 24.6%

Pin1 inhibition activity Cell-based assay (Pin1 [1]): −
inhibition at 10 µM (Pin1 [3]): 15.9%
SMILES: O=C(CNC(=O)OCc1ccccc1)Nc1cc(NC(=O)n2c3ccccc3c3ccccc32)cc(C(=O)O)c1 [Compound H-769]

SMILES: O=C(CN(c1ccccc1)c1ccccc1)Nc1cc(NC(=O)c2ccc3ccccc3c2)cc(C(=O)O)c1 [Compound H-819]
inhibition at 20 µM (SARS-CoV-2): 95%
inhibition at 10 µM (Pin1 [3]): 62%

SMILES: O=C(CN(c1ccccc1)c1ccccc1)Nc1cc(NC(=O)c2ccc3ccccc3n2)cc(C(=O)O)c1 [Compound H-821]
inhibition at 20 µM (SARS-CoV-2): 95%
inhibition at 10 µM (Pin1 [3]): 94.4%

SMILES: O=C1C=CC(=O)c2c(O)cccc21 [Juglone]
development of NASH (NASH-induced mice): ameliorates the development of NASH
